The values that follow come from patent publication US9540337B2, “Gamma-glutamyl transpeptidase inhibitors and methods of use” (The Board of Regents of the University of Oklahoma, priority 2012, dated 2017).

Experiment [1] concerns the target T1, Human GGT1 (Homo sapiens, UniProt P19440).
T1 construct: lacking the transmembrane domain; made in house; host or cells: Pichia pastoris
The experiment can be described thus: Initial rate studies with D-GpNA and L-GpNA, with or without acceptor GlyGly. It is filed as biochemical. Particulars: for second order rate constant: rounded in discussion; for fold increase of Vmax in the presence of GlyGly: plus vs minus GlyGly. As for the experimental part: Transpeptidation Reaction: The same assay buffer was used for both the hydrolysis reaction and the transpeptidation reaction. The transpeptidation reaction included 40 mM glycylglycine (glygly, Sigma, St. Louis, Mo.) as the acceptor. The concentration of the substrate for the transpeptidation reaction, L-GpNA (Sigma) was varied from 0.25 mM to 3 mM. The concentration of L-GpNA was 3 mM for experiments in which the concentration of glygly was varied. To initiate the transpeptidation reaction, 4 mU GGT were added.
1. […] 2, which describes a ping pong kinetic mechanism. […] 3 and 4. […] 5 (25).
In eq. […] Data for noncompetitive inhibition were fitted to eq. 6. […] 6 [25].
Initial Rate Studies with D-GpNA and L-GpNA: In this study, the inhibition of both the GGT hydrolysis and transpeptidation reactions by OU749 and a new series of thiadiazol sulfonamide analogs was studied. The hydrolysis and transpeptidation reactions were analyzed separately by using different stereo-isomers of the γ-glutamyl-p-nitroanilide (GpNA) substrate. The kinetics of both reactions were first characterized in the absence of inhibitors. Cleavage of the γ-glutamyl bond of either D-GpNA or L-GpNA releases p-nitroanaline, which has an OD405 of 7,680 M^−1 cm^−1, allowing for the reactions to be monitored continuously with high sensitivity. The D-glutamyl isomer of GpNA was used as the substrate for the hydrolysis reaction, in which water serves as the acceptor. The L-glutamyl isomer of GpNA, with glycylglycine (GlyGly) as an acceptor, was used for the transpeptidation reaction. L-GpNA can serve as both a substrate and a low affinity acceptor, while D-GpNA is unable to serve as an acceptor (18, 21, 26). Therefore, in the absence of an added acceptor GGT exclusively catalyzes a hydrolysis reaction with D-GpNA as the substrate. When L-GpNA is used as a substrate, the GGT reaction is a mixture of both the hydrolysis and transpeptidation reactions. Under these conditions, the rate of the reaction is the sum of hydrolysis and transpeptidation reactions, with the hydrolysis reaction contributing more at low L-GpNA concentrations and transpeptidation dominating at saturating substrate concentrations. […] However, the maximum rate (Vmax) obtained with L-GpNA was approximately 3-times faster than that measured with D-GpNA, and the KGpNA for L-GpNA was 5-times higher than that measured for D-GpNA. This is at least partially due to the ability of L-GpNA to serve as an acceptor, resulting in a transpeptidation reaction, which is faster than the hydrolysis reaction. Therefore, to study the hydrolysis reaction in isolation, D-GpNA was used as the substrate without any added acceptor.

Experiment [2] has as its target T2, Human GGT1 (hGGT) (Homo sapiens, UniProt P19440). The experiment can be described thus: D-GpNA Hydrolysis Assay (release of pNA, 405 nm, pH 7.4). The procedure:
Enzyme Isolation: Human GGT1 (P19440), lacking the transmembrane domain, was expressed in Pichia pastoris and isolated as previously described (14). […] One unit of GGT activity was defined as the amount of enzyme that released 1 μmol of paranitroaniline/min at 37° C. at pH 7.4 in the transpeptidation reaction.
The reaction was initiated with the addition of 19 mU GGT. The reaction was incubated at 37° C. and monitored continuously at 405 nm by a Bio-Rad model 680 microplate reader with Microplate Manager 5.2 software (Bio-Rad, Hercules, Calif.).
Data Analysis: Samples in each experiment were run in triplicate. Each inhibitor was evaluated in two or more independent experiments. Double reciprocal plots were generated to assess data quality and determine the correct rate equation for data fitting. Data were fitted using the proper rate equation and the Marquardt-Levenberg algorithm supplied with the Enzfitter program (BIOSOFT, Cambridge, UK). Kinetic parameters with standard errors were estimated using a simple weighting method.
Data adhering to Michaelis-Menten Kinetics were fitted to eq. 1. Data for initial rate patterns with D-, L-GpNA varied at different fixed levels of glygly were fitted to eq. […] Data for competitive and uncompetitive inhibition were fitted to eqs. 3 and 4. Data for the dependence of Vmax and Vmax/KD-GpNA on the concentration of activator were fitted using eq. 5 (25).
In eqs 1-6, Vmax are the initial and maximum rates, respectively, Ka and Kb are Michaelis constants for substrates A and B, respectively, and Kis and Kii are slope and intercept inhibition constants. In eq. 5, a is the value of Vmax or Vmax/KD-GpNA at zero activator/inhibitor, KID is the activation or inhibition constant, and KIN is a constant that causes the parameter to go to a constant value at infinite concentrations of X, the activator/inhibitor. The product a(KID/KIN) is the value of Vmax or Vmax/KD-GpNA at infinite activator/inhibitor (25). Data for noncompetitive inhibition were fitted to eq. 6. Data for the dependence of Vmax and Vmax/KD-GpNA on the concentration of activator were fitted using […].
Enzyme Isolation: hGGT (P19440), lacking the transmembrane domain, was expressed in Pichia pastoris and isolated as previously described. […] One unit of GGT activity was defined as the amount of enzyme that released 1 μmol of paranitroaniline/min at 37° C. at pH 7.4 in the transpeptidation reaction with L-GpNA.
D-GpNA Hydrolysis Assay: The assay was carried out as previously described. […] The reaction was initiated with the addition of 19 mU GGT as determined by the L-GpNA transpeptidation assay. The reaction was incubated at 37° C. and monitored continuously at 405 nm.

The target in experiment [3] is T3, hGGT (Homo sapiens, UniProt P19440).
T3 construct: lacking the transmembrane domain; made in house; host or cells: Pichia pastoris
T3 sequence (P19440 381-569 limits assumed): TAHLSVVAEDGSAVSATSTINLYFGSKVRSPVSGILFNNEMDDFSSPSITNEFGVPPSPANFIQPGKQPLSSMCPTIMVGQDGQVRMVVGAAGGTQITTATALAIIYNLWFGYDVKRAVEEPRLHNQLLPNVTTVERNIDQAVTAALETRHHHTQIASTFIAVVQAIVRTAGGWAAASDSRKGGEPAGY
T3 sequence (P19440 27-380 limits assumed): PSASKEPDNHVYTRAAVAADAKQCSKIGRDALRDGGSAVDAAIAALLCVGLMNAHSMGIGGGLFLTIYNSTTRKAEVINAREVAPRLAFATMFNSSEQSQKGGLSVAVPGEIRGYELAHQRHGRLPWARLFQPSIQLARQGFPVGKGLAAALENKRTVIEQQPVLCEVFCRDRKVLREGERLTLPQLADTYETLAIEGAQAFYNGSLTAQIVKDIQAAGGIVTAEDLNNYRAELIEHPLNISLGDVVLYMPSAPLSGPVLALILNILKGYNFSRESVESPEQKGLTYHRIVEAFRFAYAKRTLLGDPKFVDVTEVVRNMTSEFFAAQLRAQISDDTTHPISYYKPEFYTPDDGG
In words: L-Glutamate Release Assay (Hydrolysis of GSH). It is filed as biochemical. As to conditions: for Ki: GSH hydrolysis, read-out: GSH Kii. The procedure: L-Glutamate Release Assay (Hydrolysis of GSH): This assay measures the production of glutamate from the hydrolysis of GSH by GGT enzyme and has been described in detail previously. The concentration of the substrate, GSH, was varied from 5 μM to 20 μM. The concentration of the inhibitors, OU749 and its analogs, were varied from 15.6 μM to 250 μM. The reaction was initiated with the addition of 10 mU hGGT. […] All compounds were also evaluated as inhibitors of glutamate dehydrogenase, the enzyme in the second half of the L-glutamate release assay. None of the compounds in this study inhibited glutamate dehydrogenase.

For experiment [4], the target named is T2, Human GGT1 (hGGT). The experiment can be described thus: L-GpNA Transpeptidation Assay with GlyGly as acceptor. It is filed as biochemical. The arrangement: lacking the transmembrane domain; made in house; host or cells: Pichia pastoris. As for the experimental part:
Transpeptidation Reaction: The same assay buffer was used for both the hydrolysis reaction and the transpeptidation reaction. The transpeptidation reaction included 40 mM glycylglycine (glygly, Sigma, St. Louis, Mo.) as the acceptor. […] The concentration of L-GpNA was 3 mM for experiments in which the concentration of glygly was varied. To initiate the transpeptidation reaction, 4 mU GGT were added.
1. […] 3 and 4. […] 5 (25).
L-GpNA Transpeptidation Assay: The assay has been described previously. […] The concentration of L-GpNA was 3 mM for experiments in which the concentration of GlyGly was varied. To initiate the transpeptidation reaction, 4 mU GGT were added.

Where [5] appears, read: Table 5, read-out: GlyGly with L-GpNA Kis.
Setting [6] is: Table 5, read-out: L-GpNA with GlyGly Kii.
[7] abbreviates: Table 4, read-out: L-GpNA with GlyGly Kii.
[8] abbreviates: GlyGly varied, 3 mM L-GpNA, Table 2, read-out: Transpeptidation GlyGly Kis.
Setting [9] is: L-GpNA varied, 40 mM GlyGly, Table 2, read-out: Transpeptidation L-GpNA Kii.

Structures are written as SMILES. Like-named read-outs stand apart in the source and are kept apart here.

T2 sequence (P19440 381-569 limits assumed): as the sequence (P19440 381-569 limits assumed) above
T2 sequence (P19440 27-380 limits assumed): as the sequence (P19440 27-380 limits assumed) above
T1 sequence (P19440 381-569 limits assumed): as the sequence (P19440 381-569 limits assumed) above
T1 sequence (P19440 27-380 limits assumed): as the sequence (P19440 27-380 limits assumed) above

On to `N[C@H](CCC(=O)Nc1ccc([N+](=O)[O-])cc1)C(=O)O` [D-GpNA, D-gamma-glutamyl para-nitroanalide], for which, in experiment [1] (minus acceptor), the V was 2.1 ± 0.2 mM/min/nM, the V/KGpNA was 2.2e+08 ± 1.7e+06 M⁻¹ s⁻¹ and the “second order rate constant” value turned out to be 2.17e+08 M⁻¹ s⁻¹. Also, in experiment [1] (plus acceptor GlyGly), the KGlyGly is 7.0 ± 0.3 mM, the V was 53 ± 11 mM/min/nM, the V/KGlyGly was 1.27e+08 ± 2.5e+07 M⁻¹ s⁻¹ and the V/KGpNA is 2.12e+08 ± 4.17e+07 M⁻¹ s⁻¹. Moreover, the “fold increase of Vmax in the presence of GlyGly” value in experiment [1] was 25 fold.
Regarding `CN(C)c1ccc(Cc2nnc(NS(=O)(=O)c3ccc(N)cc3)s2)cc1` [Compound 27], the Ki in experiment [2] came to 180 ± 5 µM; in experiment [3] (Table 5) it was 363 ± 35 µM; in experiment [4] (setting [5]), 24 ± 4 µM; in experiment [4] (setting [6]), 275 ± 12 µM.
Take `COc1ccc(Cc2nnc(NS(=O)(=O)c3ccc(N)cc3)s2)cc1` [Compound 21]: the Ki in experiment [2] (read-out: D-GpNA Kii, Table 4) was determined as 31 ± 1 µM; in experiment [3] (Table 4), 105 ± 14 µM; in experiment [4] (Table 4, read-out: GlyGly with L-GpNA Kis), 10 ± 1 µM; in experiment [4] (setting [7]), 36 ± 1 µM. Also, the “fold more potent than OU749 in inhibiting GSH hydrolysis” value in experiment [3] (relative to OU749) worked out at 3.6 fold.
As to `Cc1cccc(Cc2nnc(NS(=O)(=O)c3ccc(N)cc3)s2)c1` [Compound 24], the Ki in experiment [2] (read-out: D-GpNA Kii, Table 5) is 109 ± 4 µM; in experiment [3] (Table 5), 121 ± 5 µM; in experiment [4] (setting [5]) it was 30 ± 5 µM; in experiment [4] (setting [6]), 129 ± 17 µM.
As for `Nc1ccc(S(=O)(=O)Nc2nnc(Cc3ccc(Cl)c(Cl)c3)s2)cc1` [Compound 29], the Ki in experiment [2] was 32 ± 1 µM; in experiment [3] (Table 5), 905 ± 53 µM; in experiment [4] (setting [5]), 5 ± 1 µM; in experiment [4] (setting [6]), 34 ± 4 µM. Moreover, the “decrease of Kis as competitive inhibitor of GlyGly relative to OU749” value in experiment [4] is “up to 11 fold”.
Turning to `N[C@@H](CCC(=O)Nc1ccc([N+](=O)[O-])cc1)C(=O)O` [L-GpNA, L-gamma-glutamyl para-nitroanilide], in experiment [1] (minus acceptor), the “KGpNA relative to D-GpNA” value stood at 5 times, the V was 6.5 ± 0.2 mM/min/nM, the V/KGpNA was found to be 1.3e+08 ± 3.3e+06 M⁻¹ s⁻¹ and the “second order rate constant” value amounted to 1.3e+08 M⁻¹ s⁻¹. For the same compound, in experiment [1] (plus acceptor GlyGly), the KGlyGly came to 9.9 ± 0.9 mM, the V is listed as 141 ± 11 mM/min/nM, the V/KGlyGly came out at 2.33e+08 ± 1.7e+07 M⁻¹ s⁻¹ and the V/KGpNA stood at 1.95e+09 ± 1.5e+08 M⁻¹ s⁻¹. Moreover, the “fold increase of Vmax in the presence of GlyGly” value in experiment [1] is recorded as 22 fold.
For `COc1ccc(Cc2nnc(NS(=O)(=O)c3ccc(Cl)cc3)s2)cc1` [Compound 10], the Ki was 5530 ± 1460 µM in experiment [2] (read-out: Hydrolysis D-GpNA Kii, D-GpNA substrate, Table 2); more than 250 µM in experiment [3] (Table 6); 13.4 ± 0.8 µM in experiment [4] (setting [8]); 32.5 ± 0.9 µM in experiment [4] (setting [9]).
On to `N[C@@H](CCC(=O)N[C@@H](CS)C(=O)NCC(=O)O)C(=O)O` [GSH, glutathione, reference compound], for which the Ki came out at 10 ± 1.2 µM in experiment [2]; 73 ± 6 µM in experiment [1] (absence of GlyGly, read-out: Kis of GSH vs L-GpNA); 3000 ± 500 µM in experiment [4] (in the presence of 3 mM L-GpNA, read-out: Kii of GSH vs GlyGly); 800 ± 100 µM in experiment [4] (in the presence of 3 mM L-GpNA, read-out: Kis of GSH vs GlyGly); 1700 ± 20 µM in experiment [4] (in the presence of 40 mM GlyGly, read-out: Kii of GSH vs L-GpNA); 1400 ± 10 µM in experiment [4] (in the presence of 40 mM GlyGly, read-out: Kis of GSH vs L-GpNA).
Regarding `COc1ccc(Cc2nnc(NS(=O)(=O)c3ccc(OC)cc3)s2)cc1` [Compound 9], the Ki in experiment [2] was 3800 ± 720 µM; in experiment [3] (Table 4) it was more than 250 µM; in experiment [4] (setting [8]) it was 133 ± 10.3 µM; in experiment [4] (setting [7]) it was 149 ± 23 µM.
On to `Nc1ccc(Cc2nnc(NS(=O)(=O)c3ccc(N)cc3)s2)cc1` [Compound 23], for which the Ki was determined as 29 ± 3 µM in experiment [2], 102 ± 16 µM in experiment [3] (Table 5), 15 ± 1 µM in experiment [4] (setting [5]) and 181 ± 20 µM in experiment [4] (setting [6]).
With `Nc1ccc(S(=O)(=O)Nc2nnc(Cc3ccc(Cl)cc3)s2)cc1` [Compound 28], the Ki in experiment [2] stood at 56 µM; in experiment [3] (Table 5), 419 ± 27 µM; in experiment [4] (setting [5]), 7 ± 1 µM; in experiment [4] (setting [6]), 54 ± 1 µM.
For `COc1ccc(Cc2nnc(NS(=O)(=O)c3ccc(C(C)(C)C)cc3)s2)cc1` [Compound 7], the Ki in experiment [2] is 341 ± 6.4 µM; in experiment [3] (Table 4), more than 250 µM; in experiment [4] (setting [8]), 143 ± 8.7 µM; in experiment [4] (setting [9]) it was 150 ± 13 µM. Also, the “fold less effective than OU749 in inhibiting hydrolysis of D-GpNA” value in experiment [2] (relative to OU749) is listed as 2-5 fold.
As for `COc1ccc(Cc2nnc(NS(=O)(=O)c3ccc(Cl)cc3Cl)s2)cc1` [Compound 4], the Ki in experiment [2] turned out to be 75.6 ± 7.2 µM; in experiment [3] (Table 6), 950 ± 242 µM; in experiment [4] (setting [8]) it was 3.7 ± 1 µM; in experiment [4] (setting [9]), 15.7 ± 0.7 µM.
